Experimental data: patent US4007267A, “Antibiotic B-98891” (priority 1974, dated 1977)
≈ marks a conversion by molar mass, not a printed value.

Assays:
[1] = Acute toxicity in rats
[2] = tested on: powdery mildew of tobacco plant; assay: Control test of powdery mildew of tobacco plant
Experimental: The control chemical was also similarly diluted with water.
Tobacco plants (Nicotiana tabacum L. f. MC) grown in pots, with the fourth mature leaf sufficiently unfolded, were prepared in a green-house, two pots per group, for this test. To encourage the onset of the disease, the pots of diseased plants were placed next to the test pots for spontaneous infection. The fungicidal solutions were prepared in the same manner as Test Example 1 and sprayed onto the test plants in two divided doses, each in sufficient volume, at intervals of 10 days. The percent area of the lesion was investigated 9 days and 15 days, respectively, after the last application.

[3] = Acute toxicity in mice
[4] = tested on: powdery mildew of rose; assay: Control test of the powdery mildew of rose (Super Star); type: in vivo
Experimental: For this test, rose (Rosa spp.) plants were grown in pots at a green-house.As test plants (forma species: Super Star and Arlene Francis) were used in groups of 3 pots per treatment. […] The number of diseased leaflets on three branches per pot was investigated 7 days after the third application and the percentage of diseased leaflets relative to the total number of leaflets investigated was calculated.

[5] = tested on: Aspergillus niger IFO-4066; assay: Antimicrobial spectrum (in vitro), agar dilution and diffusion methods; type: cell-based; conditions: medium A, 28 °C, time 40
[6] = tested on: Sphaerotheca fuliginea (Schlechtendahl) Pollacci; assay: Control test of powdery mildew of oriental melon; type: in vivo
[7] = tested on: Erysiphe graminis; assay: Activity against powdery mildew of barley (seedlings in test tubes); conditions: for Percent area of lesion: 18 °C, 7 days
Experimental: The unfolded leaves were inoculated with conidia of Erysiphe graminis using a small brush and each stock was kept in a test tube at 18° C for 7 days. The percent area of the resultant lesion was calculated to determine the effect of the test drug.

[8] = tested on: Penicillium chrysogenum IFO-4626; assay: Antimicrobial spectrum (in vitro), agar dilution and diffusion methods; type: cell-based; conditions: medium A, 28 °C, time 40
[9] = tested on: Penicillium expansum IFO-7813; assay: as above; type: cell-based; conditions: medium A, 28 °C, time 40

Structure (SMILES): NC(N)=NCC(O)CC(O)(C(=O)O)[C@H]1O[C@@H](n2cc(CO)c(N)nc2=O)C=C[C@@H]1NC(=O)[C@@H](N)CO (stereo partly drawn) [B-98891]
- toxicity in rats (summary) [1]: mild
- LD50 ([1]; intravenous): > 500 mg/kg
- LD50 ([1]; oral): > 2000 mg/kg
- Percent area of lesion ([2]; 40 ppm, 9 days): 11.6%
- Percent area of lesion ([2]; 40 ppm, 15 days): 20.4%
- Percent area of lesion ([2]; 80 ppm, 9 days): 10.0%
- Percent area of lesion ([2]; 80 ppm, 15 days): 13.2%
- Percent area of lesion ([2]; 160 ppm, 9 days): 6.0%
- Percent area of lesion ([2]; 160 ppm, 15 days): 8.5%
- toxicity in mice (summary) [3]: mild
- LD50 ([3]; intravenous): > 500 mg/kg
- LD50 ([3]; oral): > 2000 mg/kg
- Percent of diseased leaflet ([4]; 40 ppm): 5.6%
- Percent of diseased leaflet ([4]; 80 ppm): 3.2%
- Percent of diseased leaflet ([4]; 160 ppm): 2.6%
- Minimal inhibitory concentration [5]: > 500 µg/mL
- Percent area of the lesion ([6]; 40 ppm, 7 days): 0%
- Percent area of the lesion ([6]; 40 ppm, 14 days): 19.0%
- Percent area of the lesion ([6]; 40 ppm, 21 days): 40.0%
- Percent area of the lesion ([6]; 80 ppm, 7 days): 1.5%
- Percent area of the lesion ([6]; 80 ppm, 14 days): 7.0%
- Percent area of the lesion ([6]; 80 ppm, 21 days): 24.0%
- Percent area of the lesion ([6]; 160 ppm, 7 days): 0.6%
- Percent area of the lesion ([6]; 160 ppm, 14 days): 0.6%
- Percent area of the lesion ([6]; 160 ppm, 21 days): 5.0%
- Percent area of lesion ([7]; 3.12 ppm): 40%
- Percent area of lesion ([7]; 6.25 ppm): 26%
- Percent area of lesion ([7]; 12.5 ppm): 0%
- Percent area of lesion ([7]; 25 ppm): 0%
- Percent area of lesion ([7]; 50 ppm): 0%
- onset control activity ([7]; compared with the commercially available chemical (Benomyl wettable powder)): more potent onset control activity than the commercially available chemical
- activity against the causative agent of powdery mildew of barley (Erysiphe graminis) (summary) ([7]; in vivo): characteristically high activity
- Minimal inhibitory concentration [8]: > 500 µg/mL
- Diameter of inhibition zone ([8]; paper disc 7 mm, 5000 μg/ml): 13 mm
- Minimal inhibitory concentration [9]: 100 µg/mL (≈ 194 µM)
- Diameter of inhibition zone ([9]; paper disc 7 mm, 5000 μg/ml): 25 mm
